One block for each compound: values may come before it. Active and inactive are the calls of the source.
How the values were obtained:
Caspase-3 = target: T1, Caspase-3 (Homo sapiens, UniProt P42574); assay type: functional;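 further: Dose-response selectivity test against caspase-3 for candidate inhibitors of sentrin-specific proteases (SENPs)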
T1 sequence (P42574 whole entry): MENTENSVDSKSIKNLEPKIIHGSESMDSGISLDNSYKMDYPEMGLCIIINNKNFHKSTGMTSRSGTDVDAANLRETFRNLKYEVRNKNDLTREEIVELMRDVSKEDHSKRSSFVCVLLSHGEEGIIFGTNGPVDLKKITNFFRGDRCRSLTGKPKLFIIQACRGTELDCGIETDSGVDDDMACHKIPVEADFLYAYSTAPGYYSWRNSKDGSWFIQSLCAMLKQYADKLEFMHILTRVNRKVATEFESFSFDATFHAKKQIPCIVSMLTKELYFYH

[1] = target: T2, Heat shock factor protein 1 (Mus musculus, UniProt P38532); test: decrease of HSF1-responsive luciferase luminescence – cell-based, NIH3T3, dose retest, confirmation (AID 2382); assay type: functional;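 further: NIH3T3 fibroblasts with HSF1-driven luciferase reporter stressed by proteasome inhibitor MG132; luminescence from HSF1-driven luciferase expression after 8 hours of MG132 stress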
T2 sequence (P38532 whole entry): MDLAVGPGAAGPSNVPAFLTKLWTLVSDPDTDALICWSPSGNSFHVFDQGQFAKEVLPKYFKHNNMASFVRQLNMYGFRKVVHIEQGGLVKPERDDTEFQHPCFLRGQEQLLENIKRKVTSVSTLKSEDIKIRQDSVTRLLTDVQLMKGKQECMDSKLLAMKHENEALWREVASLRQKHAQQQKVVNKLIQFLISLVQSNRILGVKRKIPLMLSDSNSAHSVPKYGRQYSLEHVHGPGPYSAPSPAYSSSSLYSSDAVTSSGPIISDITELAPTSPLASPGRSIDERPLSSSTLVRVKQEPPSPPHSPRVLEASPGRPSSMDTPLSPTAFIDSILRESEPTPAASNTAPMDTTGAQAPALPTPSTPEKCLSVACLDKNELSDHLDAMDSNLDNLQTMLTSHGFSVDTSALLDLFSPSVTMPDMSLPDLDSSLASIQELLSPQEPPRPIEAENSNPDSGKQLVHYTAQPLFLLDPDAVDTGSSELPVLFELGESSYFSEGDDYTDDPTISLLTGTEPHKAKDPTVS

[2] = target: Sphingosine 1-phosphate receptor 1 (Homo sapiens, UniProt P21453); assay type: functional;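 further: Tango beta-arrestin reporter U2OS cells stimulated with S1P near its EC80; inhibitor potency meaning antagonism of receptor activation by the natural agonist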
Chain of Sphingosine 1-phosphate receptor 1 (P21453 whole entry): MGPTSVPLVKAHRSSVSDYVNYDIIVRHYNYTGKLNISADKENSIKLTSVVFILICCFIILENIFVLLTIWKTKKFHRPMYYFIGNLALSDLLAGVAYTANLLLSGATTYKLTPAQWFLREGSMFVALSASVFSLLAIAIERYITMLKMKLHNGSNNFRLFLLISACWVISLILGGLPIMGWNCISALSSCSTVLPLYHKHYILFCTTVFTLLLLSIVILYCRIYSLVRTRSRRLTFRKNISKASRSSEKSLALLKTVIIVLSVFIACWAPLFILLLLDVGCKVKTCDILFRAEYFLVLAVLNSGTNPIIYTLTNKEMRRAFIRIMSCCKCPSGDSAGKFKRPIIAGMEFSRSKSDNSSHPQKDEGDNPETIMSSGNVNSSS

[3] = target: T3, Zinc finger protein mex-5 (Caenorhabditis elegans, UniProt Q9XUB2); test: potency of MEX-5 RNA-binding blockers – biochemical, C. elegans, fluorescence polarization, dose response (AID 1960)
T3 sequence (Q9XUB2 whole entry): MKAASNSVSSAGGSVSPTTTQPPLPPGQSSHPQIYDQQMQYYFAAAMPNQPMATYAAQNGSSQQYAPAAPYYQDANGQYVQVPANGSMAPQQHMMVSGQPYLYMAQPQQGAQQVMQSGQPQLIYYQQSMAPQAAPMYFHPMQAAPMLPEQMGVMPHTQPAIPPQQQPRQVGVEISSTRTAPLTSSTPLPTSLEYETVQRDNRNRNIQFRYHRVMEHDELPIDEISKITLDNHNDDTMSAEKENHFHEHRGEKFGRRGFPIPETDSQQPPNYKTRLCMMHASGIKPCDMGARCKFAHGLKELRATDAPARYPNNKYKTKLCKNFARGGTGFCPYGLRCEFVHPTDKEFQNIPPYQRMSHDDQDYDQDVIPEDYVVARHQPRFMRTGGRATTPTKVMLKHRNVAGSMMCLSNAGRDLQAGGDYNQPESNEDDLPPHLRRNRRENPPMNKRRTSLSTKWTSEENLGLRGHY

[4] = target: Polyadenylate-binding protein 1 (Homo sapiens, UniProt P11940); test: MLLE domain peptide-binding blockers, IC50 – biochemical, fluorescence polarization, FITC-PAM2 peptide, dose response (AID 602259); assay type: functional; settings: read-out: IC50_Mean
Chain of Polyadenylate-binding protein 1 (P11940 whole entry, the tested form may be a part): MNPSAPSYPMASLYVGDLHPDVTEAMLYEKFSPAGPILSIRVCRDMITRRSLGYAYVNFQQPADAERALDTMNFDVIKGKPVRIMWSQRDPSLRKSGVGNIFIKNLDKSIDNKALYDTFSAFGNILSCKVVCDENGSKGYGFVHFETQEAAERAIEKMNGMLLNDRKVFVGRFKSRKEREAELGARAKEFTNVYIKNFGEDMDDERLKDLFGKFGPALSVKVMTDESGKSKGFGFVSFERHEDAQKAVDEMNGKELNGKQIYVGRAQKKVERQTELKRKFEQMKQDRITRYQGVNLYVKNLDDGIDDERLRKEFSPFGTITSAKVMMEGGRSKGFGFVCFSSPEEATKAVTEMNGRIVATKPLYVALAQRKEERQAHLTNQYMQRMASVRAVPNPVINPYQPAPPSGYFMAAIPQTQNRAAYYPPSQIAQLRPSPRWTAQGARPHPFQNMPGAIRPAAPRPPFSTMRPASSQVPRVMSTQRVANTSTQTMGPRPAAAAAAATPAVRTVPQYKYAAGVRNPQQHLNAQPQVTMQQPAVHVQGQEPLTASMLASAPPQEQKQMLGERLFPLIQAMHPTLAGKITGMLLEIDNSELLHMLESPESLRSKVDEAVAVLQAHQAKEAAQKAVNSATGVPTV

[5] = target: T4, Neuropeptide Y receptor type 2 (Homo sapiens, UniProt P49146); test: Fluorescence-based cell-based high-throughput dose response assay for agonists of NPY-Y2. [Related pubchem assays: 1703 (Screening assay (CNGC inhibitors).), 1359 (Screening assay (NPY-Y2 potentiators or agonists).), 1304 (Screening assay (NPY-Y1 potentiators or agonists).), 1710 (Screening assay (NPY-Y2 agonists).), 1791 (Summary AID.)]; assay type: functional
T4 sequence (P49146 whole entry): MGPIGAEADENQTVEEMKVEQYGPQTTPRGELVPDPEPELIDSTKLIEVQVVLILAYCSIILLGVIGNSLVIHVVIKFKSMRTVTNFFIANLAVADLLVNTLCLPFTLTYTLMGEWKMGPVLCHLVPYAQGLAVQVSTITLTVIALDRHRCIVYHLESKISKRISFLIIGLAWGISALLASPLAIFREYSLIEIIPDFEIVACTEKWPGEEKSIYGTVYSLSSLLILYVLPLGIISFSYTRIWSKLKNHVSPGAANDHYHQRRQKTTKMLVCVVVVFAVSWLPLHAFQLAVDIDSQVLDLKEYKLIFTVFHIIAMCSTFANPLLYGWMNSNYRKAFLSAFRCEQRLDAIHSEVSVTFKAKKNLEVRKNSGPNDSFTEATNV

[6] = target: T5, Neuropeptide Y receptor type 1 (Homo sapiens, UniProt P25929); test: Fluorescence-based counterscreen for agonists of NPY-Y2: cell-based high-throughput dose response assay for agonists of NPY-Y1.; assay type: functional
T5 sequence (P25929 whole entry): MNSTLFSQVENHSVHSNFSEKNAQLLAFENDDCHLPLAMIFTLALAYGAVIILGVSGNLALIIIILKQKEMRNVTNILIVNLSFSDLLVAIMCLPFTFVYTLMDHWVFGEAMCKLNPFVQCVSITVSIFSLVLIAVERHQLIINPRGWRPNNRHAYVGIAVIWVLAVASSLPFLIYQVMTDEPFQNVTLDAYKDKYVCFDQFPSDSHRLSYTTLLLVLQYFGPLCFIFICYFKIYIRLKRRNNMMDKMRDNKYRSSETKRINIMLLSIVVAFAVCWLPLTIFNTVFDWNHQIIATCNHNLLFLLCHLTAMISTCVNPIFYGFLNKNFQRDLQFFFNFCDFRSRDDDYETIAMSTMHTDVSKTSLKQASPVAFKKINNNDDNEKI

HEK293 = test: cells; assay type: functional, cell-based; settings: Homo sapiens;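 further: HEK-293-T cells carrying an NF-kB luciferase reporter; cells exposed to compound overnight before the viability read; potency for loss of cell viability meaning cytotoxicity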
[7] = target: Nucleotide-binding oligomerization domain-containing protein 2 (Homo sapiens, UniProt Q9HC29); test: inhibition of NOD2-driven NF-kB reporter – cell-based, luminescence, uHTS, HEK293 (AID 1566); assay type: functional
Chain of Nucleotide-binding oligomerization domain-containing protein 2 (Q9HC29 whole entry, the tested form may be a part): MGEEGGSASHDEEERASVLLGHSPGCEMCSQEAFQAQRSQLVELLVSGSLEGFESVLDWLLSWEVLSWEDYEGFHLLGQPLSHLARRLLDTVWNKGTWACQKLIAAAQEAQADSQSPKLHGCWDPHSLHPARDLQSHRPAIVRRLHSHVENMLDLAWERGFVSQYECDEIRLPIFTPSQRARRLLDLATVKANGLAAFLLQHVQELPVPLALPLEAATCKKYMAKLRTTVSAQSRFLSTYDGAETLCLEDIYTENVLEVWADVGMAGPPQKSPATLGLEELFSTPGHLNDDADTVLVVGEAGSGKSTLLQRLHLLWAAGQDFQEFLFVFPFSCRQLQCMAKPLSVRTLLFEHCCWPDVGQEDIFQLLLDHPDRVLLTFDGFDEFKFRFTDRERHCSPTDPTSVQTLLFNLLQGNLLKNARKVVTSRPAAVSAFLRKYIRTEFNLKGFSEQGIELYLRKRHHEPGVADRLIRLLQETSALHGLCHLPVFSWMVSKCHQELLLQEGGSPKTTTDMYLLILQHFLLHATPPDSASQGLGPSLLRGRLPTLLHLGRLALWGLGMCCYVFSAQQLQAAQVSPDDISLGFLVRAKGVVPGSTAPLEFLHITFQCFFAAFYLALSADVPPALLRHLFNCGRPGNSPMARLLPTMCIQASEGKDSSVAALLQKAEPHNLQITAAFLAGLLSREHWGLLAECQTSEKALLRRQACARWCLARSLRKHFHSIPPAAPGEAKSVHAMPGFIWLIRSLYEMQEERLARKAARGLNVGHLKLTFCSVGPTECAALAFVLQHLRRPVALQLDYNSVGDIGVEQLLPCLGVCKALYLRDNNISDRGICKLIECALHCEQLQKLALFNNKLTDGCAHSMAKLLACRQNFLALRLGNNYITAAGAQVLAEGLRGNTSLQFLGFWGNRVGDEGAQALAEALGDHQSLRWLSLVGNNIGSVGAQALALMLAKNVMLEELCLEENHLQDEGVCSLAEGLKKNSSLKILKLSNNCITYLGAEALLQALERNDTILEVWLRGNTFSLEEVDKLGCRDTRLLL

Streptococcus = test: GAS UMAA2166 growth inhibition – luminescence, BacTiterGlo, counter-screen for streptokinase expression inhibitor project, dose response (AID 1915); assay type: functional, organism-based;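 further: potency for reduction of bacterial viability or growth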
[8] = cytotoxicity in MITF-independent A375 cells – cell-based, CellTiter-Glo luminescence, dry powder, set 4, counter-screen for MITF inhibitor project, dose response (AID 624364); assay type: functional; settings: A-375;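 further: A375 melanoma cells are MITF independent so this is a counter screen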

IC50 (Caspase-3): 27.6 µM (active)
SMILES: O=C1NC(=S)N/C1=C/c1cc2c(cc1[N+](=O)[O-])OCO2

SMILES: Cc1ccc(NC(=O)C2=C(c3ccccc3)S(=O)(=O)CCS2(=O)=O)cc1
EC50 [1]: 6.3 µM (active)
IC50 [2]: 68.8 µM (not active)

SMILES: O=C(O)CSc1cc(NS(=O)(=O)c2ccc(Br)cc2)c2ccccc2c1O
EC50 [3]: 8.17 µM (active)
IC50 [4]: > 66 µM (inactive)

SMILES: O=C(CC(O)(C(F)(F)F)C(F)(F)F)Nc1ccc(Cl)c(Cl)c1
EC50 [5]: 21.7 µM (not active)
EC50 [6]: 16.5 µM (not active)

SMILES: O=C(CNc1cccc2ccccc12)N/N=C/c1ccc([N+](=O)[O-])o1
IC50 (HEK293): 14.3 µM (active)
EC50 [7]: 5.55 µM (active)
EC50 (Streptococcus): 6.2 µM (active)
AC50 [8]: > 70 µM (inactive)

— ChEMBL document CHEMBL1201862, “PubChem BioAssay data set” (2004)
